{
  "source": "patent US20050059646A1",
  "about": "“Use of 4-androstene-3,6,17-trione to elevate testosterone levels and the testosterone/estrogen ratio in males” (Proviant Technology Inc., priority 2003, published 2005)",
  "key": {"male subjects": {"test_system": "male subjects", "assay": "Open label study: 300 mg a-trione bid for three weeks, endocrine markers in resting AM blood draws", "format": "in vivo, human", "set-up": "Free Testosterone: unit not given here", "conditions": "for Total Testosterone: 300 mg bid oral, six male subjects, Week 0 baseline 443.67; for Estradiol / Sex Hormone Binding Globulin (SHBG) / Dihydrotestosterone / Free Testosterone / T/E Ratio: 300 mg bid; for Estradiol: Week 0 baseline 16.5; for Sex Hormone Binding Globulin (SHBG): Week 0 baseline 21.83; for Dihydrotestosterone: Week 0 baseline 33.33; for Free Testosterone: Week 0 baseline 126.67; for T/E Ratio: Week 0 baseline 269/1", "procedure": "Six male subjects, aged 32-40 years of age, were prescreened via a medical doctor for endocrinological abnormalities. The subjects' physical characteristics were: height 177.38+/−[…] cm, weight 88.8+/−13.65 kg, body fat percentage 14.9+/−3.5%. Subjects ingested 300 mg a-trione bid for three weeks as part of an open label design. Resting AM blood draws were taken at 0, 1, 2, and 3 weeks of supplementation. Table 1 indicates the changes in endocrine markers over the time evaluated. Results were analyzed using a Repeated Measures-ANOVA design with paired samples t-tests as appropriate. […] Therefore, a-trione can raise the T/E ratio while leaving estradiol in the safe physiological range."}, "aromatase enzyme": {"molecular_target": "T1, aromatase enzyme (Homo sapiens, UniProt P11511)", "T1 sequence (P11511 1-503)": "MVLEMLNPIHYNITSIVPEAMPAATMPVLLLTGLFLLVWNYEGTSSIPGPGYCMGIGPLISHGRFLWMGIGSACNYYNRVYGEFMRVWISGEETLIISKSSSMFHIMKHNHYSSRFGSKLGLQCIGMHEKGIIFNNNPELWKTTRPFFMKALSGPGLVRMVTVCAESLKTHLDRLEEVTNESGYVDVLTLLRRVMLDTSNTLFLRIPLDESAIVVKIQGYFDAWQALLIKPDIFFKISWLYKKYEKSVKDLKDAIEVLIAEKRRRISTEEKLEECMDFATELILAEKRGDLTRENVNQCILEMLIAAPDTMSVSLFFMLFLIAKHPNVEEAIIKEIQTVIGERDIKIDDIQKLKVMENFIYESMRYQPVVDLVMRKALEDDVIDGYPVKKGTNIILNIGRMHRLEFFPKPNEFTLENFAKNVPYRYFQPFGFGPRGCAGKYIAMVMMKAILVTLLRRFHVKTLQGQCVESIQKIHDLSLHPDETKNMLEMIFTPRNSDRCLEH", "conditions": "in-vitro; cited from earlier work"}, "[1]": {"conditions": "300 mg bid for three weeks, change over the time evaluated"}},
  "data": [
    {"smiles": "C[C@]12CCC(=O)C=C1C(=O)C[C@@H]1[C@@H]2CC[C@]2(C)C(=O)CC[C@@H]12", "note": "[a-trione, 4-androstene-3,6,17-trione]", "values": [
      {"measurement": "change in estrogen", "setting": "male subjects; [1]", "result": "−11", "unit": "%"},
      {"measurement": "increase in testosterone levels", "setting": "male subjects; [1]", "result": "+88%"},
      {"measurement": "Total Testosterone", "setting": "male subjects; Week 1", "result": 701.17, "unit": "ng/dL"},
      {"measurement": "Estradiol", "setting": "male subjects; Week 1", "result": 16.5, "unit": "pg/mL"},
      {"measurement": "Sex Hormone Binding Globulin (SHBG)", "setting": "male subjects; Week 1", "result": 20.5, "unit": "nmol/L"},
      {"measurement": "Dihydrotestosterone", "setting": "male subjects; Week 1", "result": 39.83, "unit": "ng/dL"},
      {"measurement": "Free Testosterone", "setting": "male subjects; Week 1", "result": 216.67},
      {"measurement": "T/E Ratio", "setting": "male subjects; Week 1", "result": "425/1"},
      {"measurement": "Total Testosterone", "setting": "male subjects; Week 2", "result": 752.17, "unit": "ng/dL"},
      {"measurement": "Estradiol", "setting": "male subjects; Week 2", "result": 14.8, "unit": "pg/mL"},
      {"measurement": "Sex Hormone Binding Globulin (SHBG)", "setting": "male subjects; Week 2", "result": 19.5, "unit": "nmol/L"},
      {"measurement": "Dihydrotestosterone", "setting": "male subjects; Week 2", "result": 45.83, "unit": "ng/dL"},
      {"measurement": "Free Testosterone", "setting": "male subjects; Week 2", "result": 252.33},
      {"measurement": "T/E Ratio", "setting": "male subjects; Week 2", "result": "508/1"},
      {"measurement": "Total Testosterone", "setting": "male subjects; Week 3", "result": 835.33, "unit": "ng/dL"},
      {"measurement": "Estradiol", "setting": "male subjects; Week 3", "result": 14.67, "unit": "pg/mL"},
      {"measurement": "Sex Hormone Binding Globulin (SHBG)", "setting": "male subjects; Week 3", "result": 18.83, "unit": "nmol/L"},
      {"measurement": "Dihydrotestosterone", "setting": "male subjects; Week 3", "result": 47.5, "unit": "ng/dL"},
      {"measurement": "Free Testosterone", "setting": "male subjects; Week 3", "result": 285.67},
      {"measurement": "T/E Ratio", "setting": "male subjects; Week 3", "result": "569/1"},
      {"measurement": "effect on estradiol (in words)", "setting": "male subjects; male endocrinological profile", "result": "small, barely significant decrease in estradiol"},
      {"measurement": "effect on testosterone (in words)", "setting": "male subjects; male endocrinological profile", "result": "very marked increase of testosterone"},
      {"measurement": "aromatase inhibiting activity", "setting": "aromatase enzyme", "result": "has been shown to have aromatase inhibiting activity in-vitro"}
    ]}
  ]
}
